Values of other authors, collected in patent publication US20200171149A1, “COMBINATION THERAPY FOR NON-SMALL CELL LUNG CANCER POSITIVE FOR EGFR MUTATION” (MEDIMMUNE LIMITED, priority 2015, published 2020).

Tests used:
tumor = conditions: patients
[1] = test system: EGFR-TKI sensitizing and resistance T790M mutations; conditions: preclinical models; Janne et al., J Clin Oncol 2014
human T-cell activation = conditions: in vitro
xenograft model = conditions: T-cell dependent mechanism

For `COc1cc2ncnc(Nc3ccc(F)c(Cl)c3)c2cc1OCCCN1CCOCC1` [gefitinib, N-(3-chloro-4-fluorophenyl)-7-methoxy-6-(3-morpholinopropoxy)quinazolin-4-amine], the Tumor regression (tumor) is listed as “tumor regression in some patients”.

For `C=CC(=O)Nc1cc(Nc2nccc(-c3cn(C)c4ccccc34)n2)c(OC)cc1N(C)CCN(C)C` [AZD9291, N-(2-((2-(dimethylamino)ethyl)(methyl)amino)-4-methoxy-5-((4-(1-methyl-1H-indol-3-yl)pyrimidin-2-yl)amino)phenyl)acrylamide], the “Effectiveness against EGFR mutations” value [1] is given as “effective against both EGFR-TKI sensitizing and resistance T790M mutations”.

B1: MEDI4736: anti-PD-L1 antibody selective for PD-L1; light chain variable SEQ ID NO: 1, heavy chain variable SEQ ID NO: 2 (antibody, V domains shown)
VH: EVQLVESGGGLVQPGGSLRLSCAASGFTFSRYWMSWVRQAPGKGLEWVANIKQDGSEKYYVDSVKGRFTISRDNAKNSLYLQMNSLRAEDTAVYYCAREGGWFGELAFDYWGQGTLVTVSS
VL: EIVLTQSPGTLSLSPGERATLSCRASQRVSSSYLAWYQQKPGQAPRLLIYDASSRATGIPDRFSGSGSGTDFTLTISRLEPEDFAVYYCQQYGSLPWTFGQGTKVEIK
For B1, the “Relief of PD-L1-mediated suppression of human T-cell activation” value (human T-cell activation) is listed as “can relieve PD-L-mediated suppression of human T-cell activation” and the Tumor growth inhibition (xenograft model) is listed as “inhibits tumor growth”.
